# Laboratory results: PMC12597549 (Drug Metabolism and Disposition, 2025)
# Changes are numbered by the printed parent chain. “Also recorded” adds a separate entry of the source. Where two headings read alike, the source gives them in different places.
# Assays:
# [1] = target: T1, UGT2B7 in pooled human liver microsomes (HLM) (Homo sapiens, UniProt P16662); experiment: Inhibition of UGT2B7-mediated hydromorphone glucuronidation by cannabinoids in pooled HLM (screening, IC50, Ki, inhibition type); type: biochemical; conditions: for inhibition of HM3G formation (in words): 100 μM cannabinoid, pooled HLM; for Inhibition Type: type of reversible inhibition of UGT2B7-mediated hydromorphone metabolism in HLM, Lineweaver-Burk replots
# T1 sequence (P16662 24-529): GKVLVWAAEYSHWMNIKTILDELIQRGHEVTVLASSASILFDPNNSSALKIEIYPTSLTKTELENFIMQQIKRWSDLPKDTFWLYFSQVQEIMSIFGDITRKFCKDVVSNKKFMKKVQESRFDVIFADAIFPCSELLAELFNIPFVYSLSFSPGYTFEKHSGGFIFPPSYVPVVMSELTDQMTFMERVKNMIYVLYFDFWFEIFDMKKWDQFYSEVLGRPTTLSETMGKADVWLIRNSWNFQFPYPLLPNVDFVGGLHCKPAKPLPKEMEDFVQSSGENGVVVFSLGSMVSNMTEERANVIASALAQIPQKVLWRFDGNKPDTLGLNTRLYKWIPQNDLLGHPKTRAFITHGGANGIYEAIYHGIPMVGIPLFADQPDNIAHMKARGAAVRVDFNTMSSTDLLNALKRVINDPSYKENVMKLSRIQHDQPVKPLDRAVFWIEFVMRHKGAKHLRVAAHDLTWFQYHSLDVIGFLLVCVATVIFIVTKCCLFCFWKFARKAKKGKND
# UGT2B7^268Tyr [2] = target: T2, UGT2B7^268Tyr (Homo sapiens, UniProt P16662); conditions: rUGT2B7^268Tyr microsomes; for inhibition of HM3G formation: 100 μM cannabinoid, 400 μM hydromorphone, 2% BSA, vs vehicle control
# T2 sequence (P16662 24-529): T1 sequence (P16662 24-529)
# [3] = Estimated maximum unbound hepatic inlet plasma concentrations of cannabinoids after oral or inhaled THC or CBD; design: species or system human; conditions: doses and Cmax from Bansal et al., 2022, read-out: Cmax,hepatic inlet,u
# Excerpt: [I]h is the inhibitor concentration in the liver and is defined as follows:(7) [I]h=fu,p×(Cmax+Fa×Fg×Ka×Dose/Qh×Rb) where fu,p is the unbound fraction of inhibitor in plasma, and Cmax is the maximal total (free and bound) inhibitor concentration in the plasma.
# UGT2B7^268His = target: T3, UGT2B7^268His (Homo sapiens, UniProt P16662, Y268H); experiment: Inhibition of hydromorphone glucuronidation (HM3G formation) by cannabinoids in rUGT2B7^268His microsomes; type: biochemical; conditions: for inhibition of HM3G formation: 100 μM cannabinoid, 400 μM hydromorphone, 2% BSA, vs vehicle control
# T3 construct: expressed in transfected cells; microsomal membrane fraction
# T3 sequence (P16662 24-529 Y268H): T1 sequence (P16662 24-529) with Y245H
# CYP2C9 = tested on: CYP2C9; design: method as in Bansal et al., 2023; conditions: enzyme kinetic (HLM); ref Bansal et al., 2023; cited from earlier work
# [4] = ref Bansal et al., 2022, cited from earlier work
# CYP2D6 = tested on: CYP2D6; design: method as in Bansal et al., 2023; conditions: enzyme kinetic (HLM); ref Bansal et al., 2023; cited from earlier work
# CYP3A4 = tested on: CYP3A4; design: method as in Bansal et al., 2023; conditions: enzyme kinetic (HLM); ref Bansal et al., 2023; cited from earlier work
# [5] = set value for static model, cited from earlier work; for ka (first-order absorption rate constant): ref Cox et al., 2019
# UGT2B7 [6] = target: T4, UGT2B7 (Homo sapiens, UniProt P16662); experiment: Inhibition of UGT2B7-mediated hydromorphone glucuronidation by cannabinoids in pooled HLM (screening, IC50, Ki, inhibition type); type: biochemical; conditions: human, pooled human liver microsomes
# T4 sequence (P16662 24-529): T1 sequence (P16662 24-529)
# CYP2C19 [7] = tested on: CYP2C19; design: method as in Bansal et al., 2023; conditions: enzyme kinetic (HLM); ref Bansal et al., 2023; cited from earlier work
# CYP2C19 [8] = tested on: CYP2C19; design: method as in Bansal et al., 2020; conditions: ref Bansal et al., 2020, read-out: KI,u (binding-corrected half-maximal inactivation concentration); cited from earlier work
# CYP2C8 = tested on: CYP2C8; design: method as in Bansal et al., 2023; conditions: enzyme kinetic (HLM); ref Bansal et al., 2023; cited from earlier work
# CYP3A = tested on: CYP3A; design: method as in Bansal et al., 2020; conditions: ref Bansal et al., 2020, read-out: KI,u (binding-corrected half-maximal inactivation concentration); cited from earlier work
# CYP2B6 = tested on: CYP2B6; design: method as in Bansal et al., 2023; conditions: enzyme kinetic (HLM); ref Bansal et al., 2023; cited from earlier work
# CYP1A2 [9] = tested on: CYP1A2; design: method as in Bansal et al., 2023; conditions: enzyme kinetic (HLM); ref Bansal et al., 2023; cited from earlier work
# CYP1A2 [10] = tested on: CYP1A2; design: method as in Bansal et al., 2020; conditions: ref Bansal et al., 2020, read-out: KI,u (binding-corrected half-maximal inactivation concentration); cited from earlier work
# UGT2B7 [11] = tested on: UGT2B7; design: method as in Bansal et al., 2023; conditions: enzyme kinetic (HLM); ref Bansal et al., 2023; cited from earlier work
# [12] = cannabidiol PBPK input; ref ChEMBL database (https://www.ebi.ac.uk/); cited from earlier work
# UGT2B7^268Tyr [13] = target: T2, UGT2B7^268Tyr; experiment: in vitro
# UGT1A9 = tested on: UGT1A9; design: method as in Bansal et al., 2023; conditions: enzyme kinetic (HLM); ref Bansal et al., 2023; cited from earlier work
# [14] = tested on: UGT2B7-mediated hydromorphone metabolism; experiment: Static mechanistic IVIVE modeling of cannabinoid-hydromorphone drug interaction (AUCR); design: species or system human; conditions: after inhalation and oral consumption of THC and CBD
# [15] = first-order absorption model, fasted
# [16] = probe hydromorphone 400 μM (HM3G formation)
# [17] = HLM, Ki corrected for nonspecific binding (fu,inc from refs 32,33; 11-OH-THC fu,inc as surrogate for 7-OH-CBD), competitive model, mixed model for 11-OH-THC, read-out: Ki,u
smiles,measurement,setting,value
"CCCCCc1cc(O)c2c(c1)OC(C)(C)[C@@H]1CCC(C(=O)O)=C[C@@H]21 [11-COOH-THC, 11-nor-9-carboxy (COOH)-Δ^9-THC]",inhibition of HM3G formation (in words),[1],only minimal or moderate inhibition; also recorded: did not show appreciable inhibition
same,inhibition of HM3G formation,UGT2B7^268Tyr [2],27%
same,Cmax,[3]; THC 20 mg oral,190 nM
same,Cmax,[3]; THC 25 mg inhalation,70 nM
same,Cmax,[3]; THC 70 mg inhalation,180 nM
same,Cmax,[3]; THC 100 mg inhalation,260 nM
same,Cmax,[3]; THC 130 mg oral,1220 nM
same,Cmax,[3]; THC 160 mg oral,1500 nM
same,inhibition of HM3G formation,UGT2B7^268His,49%
"C=C(C)[C@@H]1CCC(C)=C[C@H]1c1c(O)cc(CCCCC)cc1O [CBD, cannabidiol]","CLint, CYP: CYP2C9",CYP2C9,93 µL/min/mg of protein
same,Lag time,[4]; fasted,1.5^1 hr
same,fa,[4]; [15],0.25^1
same,ka,[4]; [15],0.55^1 1/hr
same,Fraction unbound in plasma,[4],0.013
same,Qgut,[4],10.24 L/h
same,fugut,[4],0.013
same,"CLint, CYP: CYP2D6",CYP2D6,38 µL/min/mg of protein
same,"CLint, CYP: CYP3A4",CYP3A4,220 µL/min/mg of protein
same,ka (first-order absorption rate constant),[5],0.02
same,Inhibition Type,[1],Competitive
same,IC50,UGT2B7 [6]; [16],140 ± 40 nM
same,inhibition at 100 μM,UGT2B7 [6]; [16],83%
same,Ki,UGT2B7 [6]; [17],68 ± 3 nM
same,"CLint, CYP: CYP2C19",CYP2C19 [7],193 µL/min/mg of protein
same,KI (inactivation),CYP2C19 [8],73 nM
same,"CLint, CYP: CYP2C8",CYP2C8,51 µL/min/mg of protein
same,KI (inactivation),CYP3A,106 nM
same,"CLint, CYP: CYP2B6",CYP2B6,46 µL/min/mg of protein
same,"CLint, CYP: CYP1A2",CYP1A2 [9],56 µL/min/mg of protein
same,KI (inactivation),CYP1A2 [10],20 nM
same,"CLint, UGT: UGT2B7",UGT2B7 [11],2162 µL/min/mg of protein
same,Log P,[12],6.33
same,pKa,[12],9.13
same,inhibition at 100 μM,UGT2B7^268Tyr [13],96%
same,"CLint, UGT: UGT1A9",UGT1A9,541 µL/min/mg of protein
same,increase in hydromorphone exposure (static modeling),[14],> 1.25 fold
"CCCCCc1cc(O)c2c(c1)OC(C)(C)[C@@H]1CCC(C)=C[C@@H]21 [THC, Δ^9-tetrahydrocannabinol, reference compound]",ka (first-order absorption rate constant),[5],0.02
same,BP (blood to plasma ratio),"[5]; ref Schwilke et al., 2009",0.4
same,inhibition of HM3G formation (in words),[1],only minimal or moderate inhibition
same,IC50,"[1]; HLM, IC50 corrected for nonspecific binding (fu,inc from refs 32,33; 11-OH-THC fu,inc as surrogate for 7-OH-CBD and 7-COOH-CBD), mean ± SD",2500 ± 580 nM
same,Ki,[1]; [17],170 ± 20 nM
same,Inhibition Type,[1],Competitive
same,inhibition of HM3G formation,UGT2B7^268Tyr [2],45%
same,inhibitory effect on hydromorphone metabolism for the UGT2B7∗2 variant (in words),UGT2B7^268Tyr [2],little to no inhibitory effect
same,Cmax,[3]; THC 20 mg oral,30 nM
same,Cmax,[3]; THC 25 mg inhalation,250 nM
same,Cmax,[3]; THC 70 mg inhalation,690 nM
same,Cmax,[3]; THC 100 mg inhalation,990 nM
same,Cmax,[3]; THC 130 mg oral,200 nM
same,Cmax,[3]; THC 160 mg oral,240 nM
same,increase in hydromorphone exposure (static modeling),[14],> 1.25 fold
same,inhibition of HM3G formation,UGT2B7^268His,67%
same,IC50,"UGT2B7^268His; IC50 corrected for nonspecific binding (fu,inc from refs 32,33; 11-OH-THC fu,inc as surrogate for 7-OH-CBD and 7-COOH-CBD), mean ± SD",2920 ± 260 nM
